Values quoted from earlier work, collected in patent US6703044B1, “Venlafaxine formulations” (priority 2002, dated 2004).
Where a name gives a salt, the structure may show the parent alone.

Conditions: plural daily dosing regimen

## COc1ccc(C(CN(C)C)C2(O)CCCCC2)cc1 (centres unmarked) [venlafaxine hydrochloride, 1-[(2-dimethylamino)-1-(4-methoxyphenyl)ethyl] cyclohexanol]
  patients experiencing nausea: about forty five
  patients in whom vomiting occurs: about seventeen
